Where “and” joins values, the source holds several entries; their conditions need not be identical. Identical values can stand only once.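 These data come from cells grown in 96-well plates and exposed to compound for 48 hours at five concentrations. The concentration for 50% growth inhibition is given as GI50. TGI is the concentration that stops growth completely.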
How the values were obtained:
Assay in all cases: NCI tumour cell line growth inhibition, 48 h
M19-MEL melanoma = tested on: M19-MEL melanoma
DMS 114 small cell lung = tested on: DMS 114 small cell lung
HOP-18 NSCLC = tested on: HOP-18 NSCLC
SNB-78 CNS = tested on: SNB-78 CNS
DMS 273 small cell lung = tested on: DMS 273 small cell lung
RXF-631 renal = tested on: RXF-631 renal
LXFL 529 NSCLC = tested on: LXFL 529 NSCLC
MDA-N = tested on: MDA-N
P388 leukemia = tested on: P388 leukemia
SN12K1 renal = tested on: SN12K1 renal
XF 498 CNS = tested on: XF 498 CNS

| SMILES | TGI (M19-MEL melanoma) | TGI (DMS 114 small cell lung) | TGI (HOP-18 NSCLC) | TGI (SNB-78 CNS) | TGI (DMS 273 small cell lung) | TGI (RXF-631 renal) | TGI (LXFL 529 NSCLC) | TGI (MDA-N) | TGI (XF 498 CNS) | further results |
| --- | --- | --- | --- | --- | --- | --- | --- | --- | --- | --- |
| O=C(CC(=O)C1CCOC1=O)C(=O)Nc1cccc(Cl)c1 (stereo not given) | > 100 µM | > 100 µM | > 100 µM | > 100 µM | > 100 µM | > 100 µM | > 100 µM |  |  |  |
| Nc1c(-c2ccccc2-c2c(N)[n+]([O-])c3ccccc3[n+]2[O-])[n+]([O-])c2ccccc2[n+]1[O-] | 60.3 µM | 27.2 µM | > 86 µM | > 100 µM | 38.7 µM |  | > 100 µM |  |  |  |
| COc1cc(/C=C2\[C@H]3c4c(c(OC)c(C)c(OC)c4OC)CC(C(=O)N2Cc2ccccc2)N3C)c(OC)c(C)c1OC | 33.1 µM |  | 50.2 µM |  | 38.6 µM |  | 43.9 µM |  |  |  |
| CC1CC(O)C(=O)C(O[C@@H]2C[C@@H]3CC[C@@H]4[C@H](CC[C@]5(C)C(C6=CC(=O)OC6)CC[C@]45O)[C@@]3(C=O)C[C@H]2O)O1 (stereo not given in full) |  |  |  |  |  |  |  | 0.199 µM |  |  |
| CCOC(=O)NC(=O)c1cn(C(CC)COC(=O)NCCCCCCNC(=O)OCC(CC)n2cc(C(=O)NC(=O)OCC)c(=O)[nH]c2=O)c(=O)[nH]c1=O (stereo not given) | > 100 µM | > 100 µM | > 100 µM | > 100 µM | > 100 µM |  | > 100 µM |  |  |  |
| COc1ccc(C(=O)c2cc(OC)c(OC)c(OC)c2)cc1OC |  |  |  |  |  |  |  | > 100 µM |  |  |
| CO[C@H]1Nc2c(ccc(C)c2O)C(=O)N2C=C(/C=C/C(N)=O)C[C@@H]12 | 0.0939 µM | 0.044 µM | > 100 µM | 18.4 µM | 0.118 µM |  |  | 0.0283 µM |  | TGI (P388 leukemia): 0.283 µM; TGI (SN12K1 renal): 0.0473 µM |
| Nc1ccccc1C(=O)/C=C/c1c(O)ccc2ccccc12 | 43.4 µM | > 100 µM | > 100 µM | > 100 µM | > 100 µM | > 100 µM | > 100 µM |  |  |  |
| CC(C)CCC[C@@H](C)C1CCC2[C@@H]3CC=C4C[C@@H](C(=O)NCCN(C)C)CC[C@]4(C)C3CC[C@@]21C (stereo not given in full) | 39.7 µM | 38.1 µM | 66.6 µM | > 100 µM | > 100 µM |  | > 100 µM |  | 48.7 µM |  |
| COc1c(C)n(CCO)ccc1=O | > 100 µM | > 100 µM |  | > 100 µM | > 100 µM | > 100 µM | > 100 µM |  | > 100 µM |  |
| Nc1nc(-c2ccc(Cl)c([N+](=O)[O-])c2)cs1 | > 100 µM | > 100 µM | > 100 µM | > 100 µM | > 100 µM | > 100 µM | > 100 µM |  | 86.6 µM |  |
| OC(c1cc(-c2ccc(C(F)(F)F)cc2)nc(C(F)(F)F)c1)C1CCCCN1 (stereo not given) |  |  |  |  |  |  |  | 3.04 µM |  |  |
| CCCC(=O)C1=C(O)C(Cc2c(O)c(C)c(O)c(C(=O)CCC)c2O)=C(O)C(C)(C)C1=O |  |  |  |  |  |  |  | > 50 µM |  |  |
| Cc1ccc(C)c(N2C/C(=N\NC(=O)CC#N)C(c3nc4ccccc4s3)C(=O)C2=O)c1 (stereo not given) | > 100 µM | > 100 µM | > 100 µM | > 100 µM | > 100 µM |  | > 100 µM |  | > 100 µM |  |
| c1ccc2c(c1)[nH]c1c2cc[n+]2cc3c(cc12)CCCC3 |  |  |  |  |  |  |  | 3.21 µM |  |  |
| CCC(C)(O)c1cnc(CC(C)C)c(=O)n1O (stereo not given) |  |  |  |  |  |  |  | > 100 µM |  |  |
| CCNC(=O)/C(=C/c1ccc(OC)cc1)c1cc(OC)c(OC)c(OC)c1 | > 100 µM | > 57 µM | > 100 µM | > 100 µM | > 100 µM | > 100 µM | > 100 µM | 4.26 µM | 85.3 µM |  |
| CC(C(=O)c1ccc(Cl)cc1)/C(=N/NC(=O)NN)C(=O)Nc1cccc(C(F)(F)F)c1 (stereo not given) | > 100 µM | > 100 µM | > 100 µM | > 100 µM | > 100 µM | > 100 µM | > 100 µM |  | > 100 µM |  |
| ClC(Cl)=C1C(=C(Cl)Cl)C(Cl)(Cl)C1(Cl)Cl | 9.1 µM | 2.33 µM | 19.4 µM | 7.71 µM | 9.87 µM | 13.9 µM | 2.47 µM | 2.81 µM |  |  |
| Cc1[nH]c2ccccc2c1C1Cc2ccccc2N1C(=O)C#Cc1ccc([N+](=O)[O-])cc1 (stereo not given) |  | > 100 µM | > 100 µM | > 100 µM |  |  | > 100 µM |  | > 100 µM |  |
| Cn1c(=O)nc2n(-c3cc(C(F)(F)F)cc(C(F)(F)F)c3)c3ccccc3nc-2c1=O | 29.5 µM | > 100 µM |  | > 100 µM | > 100 µM |  |  |  | > 100 µM |  |
| COC(=O)/C(=N/O)C(C(=O)C=C(C)C)C(=O)C(=O)Nc1nc2ccc([N+](=O)[O-])cc2s1 (stereo not given) | > 100 µM |  |  | > 100 µM | > 100 µM |  | > 100 µM |  | > 100 µM |  |
| COC(=O)C(=O)C(C(C)=O)C(=O)NCc1ccc(OC)c(OC)c1 (stereo not given) | > 100 µM | > 100 µM | > 100 µM | > 100 µM | > 100 µM | > 100 µM | > 100 µM |  | > 100 µM |  |

| SMILES | TGI (M19-MEL melanoma) | TGI (DMS 114 small cell lung) | TGI (HOP-18 NSCLC) | TGI (SNB-78 CNS) | TGI (DMS 273 small cell lung) | TGI (RXF-631 renal) | TGI (LXFL 529 NSCLC) | TGI (MDA-N) | TGI (XF 498 CNS) | further results |
| --- | --- | --- | --- | --- | --- | --- | --- | --- | --- | --- |
| COC(=O)C1C(O)C(C(=O)OC)C(C)N(C)C1C (stereo not given) |  |  |  |  |  |  |  | > 100 µM |  |  |
| COc1cccc(/C=N/[N-]C(=O)c2ccncc2)c1[O-].COc1cccc(/C=N/[N-]C(=O)c2ccncc2)c1[O-].[O]=[U](=[O])([OH2+])[OH2+] | > 100 µM | 12.5 µM | 88.6 µM | > 100 µM | > 56.6 µM |  | > 100 µM |  | 37.6 µM | GI50 (M19-MEL melanoma): 5.83 µM; GI50 (DMS 114 small cell lung): 3.3 µM; GI50 (HOP-18 NSCLC): 12.1 µM; GI50 (SNB-78 CNS): > 87.7 µM; GI50 (DMS 273 small cell lung): 4.2 µM; GI50 (XF 498 CNS): 4.75 µM; GI50 (LXFL 529 NSCLC): > 33.7 µM |
| CCC1CN2CCc3cc(OC)c(OC)cc3C2CC1CC1c2cc(OC)c(OC)cc2CCN1C(=O)C1CCCN1 (stereo not given) | 36.6 µM |  | > 100 µM | > 100 µM | > 100 µM | 90.8 µM | 64.4 µM |  | 39.2 µM |  |
| COC(=O)/C([Se]c1c(C)cc(C)cc1C)=C(/[Se]c1c(C)cc(C)cc1C)C(=O)OC | > 100 µM | > 100 µM | > 100 µM | > 100 µM | > 100 µM | > 100 µM | > 100 µM |  |  |  |
| CC(C)(C)c1ccc2c(c1)S(=O)(=O)Nc1ccc(Cl)cc1NS(=O)(=O)c1cc(C(C)(C)C)ccc1OCCOCCOCCO2 | > 100 µM | > 100 µM | > 100 µM | > 100 µM | > 100 µM |  |  |  |  |  |
| CCOP(=O)(OCC)C(C(=O)OC)C(=O)C(=O)Nc1ccc(Cl)cc1Cl (stereo not given) | > 100 µM | > 100 µM | > 100 µM | > 100 µM | > 100 µM |  | > 100 µM |  |  |  |
| NC(=O)C(=O)CC(=O)c1ccccc1NC1=CC(=O)C(=O)c2ccccc21 | 22.8 µM | 68.2 µM | > 100 µM | > 100 µM | > 100 µM | > 100 µM | > 100 µM |  | > 100 µM |  |
| O=C(/C=C/c1ccccc1)c1ccccc1 |  |  |  |  |  |  |  | > 10 µM |  |  |
| CC(C)=C1CCC(CN(C)C)C1=O (stereo not given) | > 100 µM | 38.4 µM | 36.6 µM |  |  | > 100 µM | 25.4 µM |  |  |  |
| O=C(N/C(=C\c1ccc([N+](=O)[O-])cc1)c1nc2ccccc2[nH]1)c1ccccc1 | > 100 µM | > 100 µM | > 100 µM | > 100 µM |  | > 100 µM | > 100 µM |  |  |  |
| CCC/C=C/C=C/C1CC(O)C(O)C(=O)C1CO (stereo not given) |  |  |  |  |  |  |  | > 100 µM |  |  |
| O=C(Cc1nc2c3c(ccc2[nH]c1=O)C(=O)c1ccccc1C3=O)C(=O)Nc1ccccc1[N+](=O)[O-] | 79.5 µM |  |  | 16.5 µM |  |  | 18 µM |  | 43.1 µM |  |
| CCOCN1COCN(C)C1=O | > 100 µM |  | > 100 µM | > 100 µM | > 100 µM | > 100 µM |  |  | > 100 µM |  |
| CN(C(=O)c1ccc([N+](=O)[O-])cc1)c1ccccc1 | > 100 µM | > 10 µM | > 100 µM | > 100 µM | > 100 µM | > 100 µM | > 100 µM |  | > 100 µM |  |
| NCCNCC1CCNCC1 |  |  |  |  |  |  |  | > 100 µM |  |  |
| Cc1ccccc1C1=[N+]([O-])c2ccc(Cl)cc2C1=O | 21.2 µM |  | 35.4 µM |  |  | 16.8 µM | 24.3 µM |  | 14.3 µM |  |
| CN(C)C(=S)SSC(=S)N(C)C | > 40 µM | 17.4 µM | > 100 µM | > 100 µM | > 100 µM | > 100 µM | > 100 µM | 30.3 µM and 50.9 µM | > 88.3 µM |  |
| N#CC(=Nc1ccccc1N(C(=O)c1ccccc1)C(=O)c1ccccc1)c1ccccc1 | > 100 µM | > 48.8 µM | > 100 µM | > 100 µM | > 100 µM |  | > 100 µM |  | > 100 µM |  |
| Nc1ccccc1O.O.O=C(O)C1[O][Sb][O]C1C(=O)O (stereo not given) |  |  |  |  |  |  |  | 42.2 µM |  | GI50 (MDA-N): 17.4 µM |
| CN(C)CCNCCN |  |  |  |  |  |  |  | > 100 µM |  |  |
| O=[N+]([O-])c1cccc(C2=NOC(C3CCCCC3)C2)c1 (stereo not given) | > 100 µM | > 100 µM | > 100 µM | > 100 µM | > 100 µM | > 100 µM | > 100 µM |  |  |  |
| Cc1cc2c(c(C(N)=O)c1C)-c1ccccc1C2=O | > 100 µM | > 100 µM | > 100 µM | > 100 µM | > 100 µM | > 100 µM | > 100 µM |  |  |  |
| COC(c1ccc(C(C)(C)C)cc1)(c1ccc(C(C)(C)C)cc1)c1ccc(C(C)(C)C)cc1 |  |  |  |  |  |  |  | > 100 µM |  |  |
